Measurements published in ChEMBL document CHEMBL1201862, “PubChem BioAssay data set” (2004).
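Five concentrations, 48 hours, 96-well plates. Abbreviation: GI50, concentration required for 50% inhibition of growth.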 Activity calls are given as the source filed them. No stated cut-off is given here; in the data, active = GI50 up to about 1.1 µM and inactive = higher.

What was measured:
Test in all cases: growth of human tumour cells (NCI), 48 h
A498 = system: A498
K562 = system: K562
CCRF-CEM = system: CCRF-CEM
A549 = system: A549
LXFL 529 = system: LXFL 529
786-0 = system: 786-0
OVCAR-3 = system: OVCAR-3
UACC-257 = system: UACC-257
SK-MEL-28 = system: SK-MEL-28
SF-295 = system: SF-295
MOLT-4 = system: MOLT-4
SK-OV-3 = system: SK-OV-3
SK-MEL-2 = system: SK-MEL-2
OVCAR-8 = system: OVCAR-8
SNB-75 = system: SNB-75
NCI-H522 = system: NCI-H522
SNB-78 = system: SNB-78
DLD-1 = system: DLD-1
IGROV-1 = system: IGROV-1
DMS-273 = system: DMS-273
HOP-92 = system: HOP-92
KM-20L2 = system: KM-20L2
RXF 393 = system: RXF 393
LOX IMVI = system: LOX IMVI
HOP-62 = system: HOP-62
NCI-H23 = system: NCI-H23
NCI-H460 = system: NCI-H460
TK-10 = system: TK-10
XF498 = system: XF498
M19-MEL = system: M19-MEL
EKVX = system: EKVX
SF-539 = system: SF-539
HCT-15 = system: HCT-15
U-251 = system: U-251
HOP-18 = system: HOP-18
SK-MEL-5 = system: SK-MEL-5
SN12C = system: SN12C
CAKI-1 = system: CAKI-1
OVCAR-5 = system: OVCAR-5
SNB-19 = system: SNB-19
COLO 205 = system: COLO 205
DMS-114 = system: DMS-114
HCT-116 = system: HCT-116
Malme-3M = system: Malme-3M
UACC-62 = system: UACC-62
M14 = system: M14
SW-620 = system: SW-620
RPMI-8226 = system: RPMI-8226
OVCAR-4 = system: OVCAR-4
SF-268 = system: SF-268
UO-31 = system: UO-31
HT-29 = system: HT-29
KM12 = system: KM12
ACHN = system: ACHN
SR = system: SR
NCI-H226 = system: NCI-H226
HCC 2998 = system: HCC 2998
HL-60 = system: HL-60

Cc1cc(NS(=O)(=O)c2ccc(Nc3c4ccccc4nc4c(C(=O)Nc5ccc(S(N)(=O)=O)cc5)cccc34)cc2)no1
GI50 (A498): > 100 µM (inactive)
GI50 (K562): 44.3 µM (inactive)
GI50 (CCRF-CEM): 26.5 µM (inactive)
GI50 (A549): > 100 µM (inactive)
GI50 (LXFL 529): 21.1 µM (inactive)
GI50 (786-0): > 100 µM (inactive)
GI50 (OVCAR-3): 16 µM (inactive)
GI50 (UACC-257): > 100 µM (inactive)
GI50 (SK-MEL-28): 28.9 µM (inactive)
GI50 (SF-295): > 100 µM (inactive)
GI50 (MOLT-4): 27 µM (inactive)
GI50 (SK-OV-3): > 100 µM (inactive)
GI50 (SK-MEL-2): 24.1 µM (inactive)
GI50 (OVCAR-8): 51.9 µM (inactive)
GI50 (SNB-75): 72.8 µM (inactive)
GI50 (NCI-H522): 24.2 µM (inactive)
GI50 (SNB-78): 23.9 µM (inactive)
GI50 (DLD-1): > 100 µM (inactive)
GI50 (IGROV-1): 70.1 µM (inactive)
GI50 (DMS-273): > 100 µM (inactive)
GI50 (HOP-92): 33 µM (inactive)
GI50 (KM-20L2): > 100 µM (inactive)
GI50 (RXF 393): 90.6 µM (inactive)
GI50 (LOX IMVI): 35 µM (inactive)
GI50 (HOP-62): 35.4 µM (inactive)
GI50 (NCI-H23): 47.5 µM (inactive)
GI50 (NCI-H460): > 100 µM (inactive)
GI50 (TK-10): > 100 µM (inactive)
GI50 (XF498): 20.9 µM (inactive)
GI50 (M19-MEL): 25.1 µM (inactive)
GI50 (EKVX): > 100 µM (inactive)
GI50 (SF-539): 21.3 µM (inactive)
GI50 (HCT-15): > 100 µM
GI50 (U-251): 24.8 µM (inactive)
GI50 (HOP-18): > 100 µM (inactive)
GI50 (SK-MEL-5): 63.1 µM (inactive)
GI50 (SN12C): 36.2 µM (inactive)
GI50 (CAKI-1): > 100 µM (inactive)
GI50 (OVCAR-5): > 100 µM (inactive)
GI50 (SNB-19): 32.7 µM (inactive)
GI50 (COLO 205): 34.8 µM (inactive)
GI50 (DMS-114): 28.5 µM (inactive)
GI50 (HCT-116): 31.2 µM (inactive)
GI50 (Malme-3M): 17.9 µM (inactive)
GI50 (UACC-62): 24.8 µM (inactive)
GI50 (M14): > 100 µM (inactive)
GI50 (SW-620): 74.3 µM (inactive)
GI50 (RPMI-8226): > 100 µM (inactive)
GI50 (OVCAR-4): 23.4 µM (inactive)
GI50 (SF-268): 36.9 µM (inactive)
GI50 (UO-31): 80.9 µM (inactive)
GI50 (HT-29): > 100 µM (inactive)
GI50 (KM12): 20.6 µM (inactive)
GI50 (ACHN): > 100 µM (inactive)

O=S(=O)(N/N=C/c1cccc(Cl)c1Cl)c1ccccc1
GI50 (A498): 40.8 µM (inactive)
GI50 (K562): 62.2 µM (inactive)
GI50 (SR): 38.8 µM (inactive)
GI50 (CCRF-CEM): 66.2 µM (inactive)
GI50 (A549): > 100 µM (inactive)
GI50 (LXFL 529): 70.6 µM (inactive)
GI50 (786-0): > 100 µM (inactive)
GI50 (OVCAR-3): > 100 µM (inactive)
GI50 (UACC-257): 48 µM (inactive)
GI50 (SK-MEL-28): > 100 µM (inactive)
GI50 (SF-295): 79.6 µM (inactive)
GI50 (MOLT-4): 26.9 µM (inactive)
GI50 (SK-OV-3): > 100 µM (inactive)
GI50 (SK-MEL-2): 58.6 µM (inactive)
GI50 (OVCAR-8): 78.2 µM (inactive)
GI50 (SNB-75): 99.1 µM (inactive)
GI50 (SNB-78): > 100 µM (inactive)
GI50 (DLD-1): 45.4 µM (inactive)
GI50 (IGROV-1): 77.4 µM (inactive)
GI50 (DMS-273): 71.4 µM (inactive)
GI50 (HOP-92): 14.2 µM (inactive)
GI50 (KM-20L2): > 100 µM (inactive)
GI50 (RXF 393): 22.6 µM (inactive)
GI50 (LOX IMVI): 68.7 µM (inactive)
GI50 (HOP-62): > 100 µM (inactive)
GI50 (NCI-H23): 45.6 µM (inactive)
GI50 (NCI-H460): > 100 µM (inactive)
GI50 (TK-10): > 100 µM (inactive)
GI50 (XF498): 54.7 µM (inactive)
GI50 (M19-MEL): 93.8 µM (inactive)
GI50 (EKVX): > 100 µM (inactive)
GI50 (SF-539): 80 µM (inactive)
GI50 (HCT-15): 98.2 µM
GI50 (U-251): 90.4 µM (inactive)
GI50 (NCI-H226): > 100 µM (inactive)
GI50 (HOP-18): 87.3 µM (inactive)
GI50 (SK-MEL-5): 43.6 µM (inactive)
GI50 (SN12C): 46 µM (inactive)
GI50 (CAKI-1): 69.3 µM (inactive)
GI50 (OVCAR-5): > 100 µM (inactive)
GI50 (HCC 2998): > 100 µM (inactive)
GI50 (COLO 205): 89.7 µM (inactive)
GI50 (DMS-114): 27.7 µM (inactive)
GI50 (HCT-116): 47 µM (inactive)
GI50 (Malme-3M): > 100 µM (inactive)
GI50 (UACC-62): > 100 µM (inactive)
GI50 (HL-60): 39.9 µM (inactive)
GI50 (M14): > 100 µM (inactive)
GI50 (SW-620): > 100 µM (inactive)
GI50 (RPMI-8226): 66.2 µM (inactive)
GI50 (OVCAR-4): > 100 µM (inactive)
GI50 (SF-268): 35.5 µM (inactive)
GI50 (UO-31): 94.4 µM (inactive)
GI50 (HT-29): 99.8 µM (inactive)
GI50 (KM12): > 100 µM (inactive)
GI50 (ACHN): 55 µM (inactive)
